The values below come from PubChem BioAssay (NCI).

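Protocol summary: plate cells (96-well), add compound at 5 concentrations, incubate 48 h, interpolate endpoints linearly. GI50 is the concentration that inhibits growth by half. TGI: total growth inhibition.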 The source made the active and inactive calls. No stated cut-off is given here; in the data, active means GI50 below about 0.43 µM; inactive means the rest.

This assay has as its system MDA-MB-468 breast. Nature of the assay: inhibition of tumour cell growth, NCI panel, 48 h.

With `CC1=C(CCCOC(=O)[C@H](N)CC(C)C)C2=C(C)C3(CC3)[C@@](C)(O)C(=O)C2=C1`, the GI50 was 1370 nM and the TGI turned out to be 4.6 µM.
For `COc1cc(/C=C/C(=O)c2cccc(-n3cc(-c4ccccc4)[nH]c3=O)c2)cc(OC)c1OC` the same measures were 1800 nM and 3.54 µM.
For the molecule `CC(C)(C)CC(C)(C)c1ccc(OCCO)cc1`, the result was inactive.
For `O=C(N/N=C/c1ccc(Cl)cc1)c1ccc(NC(=O)c2ccccn2)cc1`, the GI50 was 23200 nM and the TGI worked out at 95.2 µM.
